Test results as given in PubChem BioAssay AID1259411 (Chemical Carcinogenesis Research Information System (CCRIS), 2018).
Activity calls are given as the source filed them. How the calls were made is not given here.

Test system: rodent carcinogenicity bioassays, tumor incidence
Experiment: CCRIS carcinogenicity studies
Conditions: Dose: 0, Dose: 0
Summary of the method: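 Archive of carcinogenicity, mutagenicity, tumor promotion and tumor inhibition results drawn from journals, NCI reports and other sources, expert-reviewed; covers 1985-2011 and is no longer updated.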

Question: How did the carcinogen call (Species: Mouse, Strain/Sex: C57BL/6 (heterozygous Trp53-deficient)/Male, Route: Inhalation, 100, 300 ppm 6 hr/d, 5 d/wk for 26 wks, then no exposure for lifetime, 100, 300 ppm 6 hr/d, 5 d/wk for 26 wks, then no exposure for lifetime, Tumor Site: Type of Lesion: Blood: hematopoietic neoplasms (325, 83,100%). Lymphoid tissue: thymic lymphoma (4, 50, 25%)) turn out when c1ccccc1 was run?
Answer: active; positive (highest dose)

Question: And the carcinogen call (Species: Mouse, Strain/Sex: C57BL/6 (homozygous Trp53-deficient)/Male, Route: Inhalation, 33, 100, 300 ppm 6 hr/d, 5 d/wk for 26 wks, then no exposure for lifetime, 33, 100, 300 ppm 6 hr/d, 5 d/wk for 26 wks, then no exposure for lifetime)?
Answer: inactive; negative

Question: And the carcinogen call (Species: Mouse, Strain/Sex: C57BL/6 (wild type)/Male, Route: Inhalation, 33, 100, 300 ppm 6 hr/d, 5 d/wk for 26 wks, then no exposure for lifetime, 33, 100, 300 ppm 6 hr/d, 5 d/wk for 26 wks, then no exposure for lifetime, Tumor Site: Type of Lesion: Blood: Hematopoietic neoplasms (10, 21,16, 56%). Lymphoid tissue: Thymic lymphoma (0, 0,11, 28%))?
Answer: active; positive (highest dose)

Question: And the carcinogen call (Species: Mouse, Strain/Sex: C57BL/6 (wild type)/Male, Route: Inhalation, 100, 300 ppm 6 hr/d, 5 d/wk for 26 wks, then no exposure for lifetime, 100, 300 ppm 6 hr/d, 5 d/wk for 26 wks, then no exposure for lifetime, Tumor Site: Type of Lesion: Blood: hematopoietic neoplasms (8, 25,30%). Lymphoid tissue: thymic lymphoma (0,17, 0%))?
Answer: inactive; negative

Question: What about the carcinogen call (Species: RAT, Strain/Sex: F344/FEMALE, Route: GAVAGE, 25, 50, 100 MG/KG IN CORN OIL 5 D/WK FOR 103 WK, 25, 50, 100 MG/KG IN CORN OIL 5 D/WK FOR 103 WK, Tumor Site: Type of Lesion: ORAL CAVITY: SQUAMOUS CELL PAPILLOMA OR CARCINOMA, EAR (ZYMBAL GLAND): CARCINOMA, ADENOMA OR CARCINOMA) of the same compound?
Answer: active; positive

Question: And the carcinogen call (Species: RAT, Strain/Sex: F344/MALE, Route: GAVAGE, 50, 100, 200 MG/KG IN CORN OIL 5 D/WK FOR 103 WK, 50, 100, 200 MG/KG IN CORN OIL 5 D/WK FOR 103 WK, Tumor Site: Type of Lesion: INTEGUMENTARY SYSTEM (SKIN): SQUAMOUS CELL PAPILLOMA, SQUAMOUS CELL CARCINOMA, ORAL CAVITY: SQUAMOUS CELL PAPILLOMA, SQU)?
Answer: active; positive

Question: What about the carcinogen call (Species: RAT, Strain/Sex: SPRAGUE-DAWLEY/FEMALE, Route: GAVAGE, 50, 250 MG/KG BW IN OLIVE OIL 1/D 4-5 D/WK FOR 52 WK (STUDY DURATION: LIFETIME), 50, 250 MG/KG BW IN OLIVE OIL 1/D 4-5 D/WK FOR 52 WK (STUDY DURATION: LIFETIME), Tumor Site: Type of Lesion: [BRAIN WAS ONLY SITE EVALUATED]) of the same compound?
Answer: inactive; negative

Question: What about the carcinogen call (Species: RAT, Strain/Sex: SPRAGUE-DAWLEY/FEMALE, Route: GAVAGE, 50, 250 MG/KG BW, 1/D, 4-5 D/WK FOR 52 WK, 50, 250 MG/KG BW, 1/D, 4-5 D/WK FOR 52 WK, Tumor Site: Type of Lesion: ZYMBAL GLAND: CARCINOMA, MAMMARY GLAND: CARCINOMA) of the same compound?
Answer: active; positive

Question: And the carcinogen call (Species: RAT, Strain/Sex: SPRAGUE-DAWLEY/MALE,FEMALE, Route: GAVAGE, 500 MG/KG BW, 1/WK, Tumor Site: Type of Lesion: ORAL CAVITY: SQUAMOUS CELL CARCINOMA, ZYMBAL GLAND: CARCINOMA)?
Answer: active; positive

Question: And the carcinogen call (Species: RAT, Strain/Sex: SPRAGUE-DAWLEY/MALE, Route: GAVAGE, 50, 250 MG/KG BW IN OLIVE OIL 1/D 4-5 D/WK FOR 52 WK (STUDY DURATION: LIFETIME), 50, 250 MG/KG BW IN OLIVE OIL 1/D 4-5 D/WK FOR 52 WK (STUDY DURATION: LIFETIME), Tumor Site: Type of Lesion: [BRAIN WAS ONLY SITE EVALUATED])?
Answer: inactive; negative

Question: And the carcinogen call (Species: RAT, Strain/Sex: SPRAGUE-DAWLEY/MALE, Route: GAVAGE, 50, 250 MG/KG BW, 1/D, 4-5 D/WK FOR 52 WK, 50, 250 MG/KG BW, 1/D, 4-5 D/WK FOR 52 WK, Tumor Site: Type of Lesion: HEMATOPOIETIC SYSTEM (LEUKEMIA))?
Answer: active; positive

Question: And the carcinogen call (Species: RAT, Strain/Sex: STRAIN-CD/FEMALE, Route: INHALATION, 200 PPM 4 HR/D 5 D/WK FOR 7 WK THEN 7 HR/D FOR 12 WK THEN 300 PPM 7 HR/D 5 D/WK FOR 85 WK (STUDY DURATION: LIFESPAN), Tumor Site: Type of Lesion: MAMMARY GLAND: ADENOCARCINOMA, ORAL CAVITY: CARCINOMA, ZYMBAL GLAND: CARCINOMA, Tumor Site: Type of Lesion: MAMMARY GLAND: ADENOCARCINOMA, ORAL CAVITY: CARCINOMA, ZYMBAL GLAND: CARCINOMA)?
Answer: active; positive

Question: And the carcinogen call (Species: RAT, Strain/Sex: STRAIN-CD/FEMALE, Route: INHALATION, 200 PPM 4 HR/D FOR 7 WK THEN 7 HR/D FOR 12 WK THEN 300 PPM 7 HR/D 5 D/WK FOR 85 WK TO RATS ALSO EXPOSED IN UTERO (STU, Tumor Site: Type of Lesion: ZYMBAL GLAND: CARCINOMA, ORAL CAVITY: CARCINOMA, NASAL CAVITY: CARCINOMA, MAMMARY GLAND: ADENOCARCINOMA, LIVER: HEPATOMA, Tumor Site: Type of Lesion: ZYMBAL GLAND: CARCINOMA, ORAL CAVITY: CARCINOMA, NASAL CAVITY: CARCINOMA, MAMMARY GLAND: ADENOCARCINOMA, LIVER: HEPATOMA)?
Answer: active; positive

Question: What about the carcinogen call (Species: RAT, Strain/Sex: STRAIN-CD/FEMALE, Route: INTRAGASTRIC, 50, 250 MG/KG IN OLIVE OIL 1/D 4-5 D/WK FOR 52 WK (STUDY DURATION: LIFESPAN), 50, 250 MG/KG IN OLIVE OIL 1/D 4-5 D/WK FOR 52 WK (STUDY DURATION: LIFESPAN), Tumor Site: Type of Lesion: ZYMBAL GLAND: CARCINOMA) of the same compound?
Answer: active; positive

Question: And the carcinogen call (Species: RAT, Strain/Sex: STRAIN-CD/FEMALE, Route: INTRAGASTRIC, 500 MG/KG IN OLIVE OIL 1/D 4-5 D/WK FOR 104 WK (STUDY DURATION: 104 WK))?
Answer: inactive; negative

Question: What about the carcinogen call (Species: RAT, Strain/Sex: STRAIN-CD/FEMALE, Route: INTRAGASTRIC, 500 MG/KG IN OLIVE OIL 1/D 4-5 D/WK FOR 104 WK (STUDY DURATION: LIFESPAN), Tumor Site: Type of Lesion: ZYMBAL GLAND: CARCINOMA, LIVER: ANGIOSARCOMA, ORAL CAVITY: CARCINOMA, HEMOLYMPHORETICULAR: TUMOR, Tumor Site: Type of Lesion: ZYMBAL GLAND: CARCINOMA, LIVER: ANGIOSARCOMA, ORAL CAVITY: CARCINOMA, HEMOLYMPHORETICULAR: TUMOR) of the same compound?
Answer: active; positive

Question: And the carcinogen call (Species: RAT, Strain/Sex: STRAIN-CD/MALE, Route: INHALATION, 200 PPM 4 HR/D 5 D/WK FOR 7 WK THEN 7 HR/D FOR 12 WK THEN 300 PPM 7 HR/D 5 D/WK FOR 85 WK TO RATS ALSO EXPOSED IN UTE, Tumor Site: Type of Lesion: ZYMBAL GLAND: CARCINOMA)?
Answer: active; positive

Question: And the carcinogen call (Species: RAT, Strain/Sex: STRAIN-CD/MALE, Route: INTRAGASTRIC, 50, 250 MG/KG IN OLIVE OIL 1/D 4-5 D/WK FOR 52 WK (STUDY DURATION: LIFESPAN), 50, 250 MG/KG IN OLIVE OIL 1/D 4-5 D/WK FOR 52 WK (STUDY DURATION: LIFESPAN), Tumor Site: Type of Lesion: HEMOLYMPHORETICULAR SYSTEM: TUMOR)?
Answer: active; positive

Question: What about the carcinogen call (Species: RAT, Strain/Sex: STRAIN-CD/MALE, Route: INTRAGASTRIC, 500 MG/KG IN OLIVE OIL 1/D 4-5 D/WK FOR 104 WK (STUDY DURATION: 104 WK)) of the same compound?
Answer: inactive; negative

Question: And the carcinogen call (Species: RAT, Strain/Sex: STRAIN-CD/MALE, Route: INTRAGASTRIC, 500 MG/KG IN OLIVE OIL 1/D 4-5 D/WK FOR 104 WK (STUDY DURATION: LIFESPAN), Tumor Site: Type of Lesion: ZYMBAL GLAND: CARCINOMA, ORAL CAVITY: CARCINOMA, NASAL CAVITY: CARCINOMA, SKIN: CARCINOMA, Tumor Site: Type of Lesion: ZYMBAL GLAND: CARCINOMA, ORAL CAVITY: CARCINOMA, NASAL CAVITY: CARCINOMA, SKIN: CARCINOMA)?
Answer: active; positive

Question: What about the carcinogen call (Species: RAT, Strain/Sex: WISTAR/FEMALE, Route: GAVAGE, 500 MG/KG IN OLIVE OIL 1/D FOR 4 TO 5 D/WK FOR 104 WK (STUDY DURATION: LIFETIME), Tumor Site: Type of Lesion: ZYMBAL GLAND: CARCINOMA, ORAL CAVITY: CARCINOMA, NASAL CAVITY: CARCINOMA, Tumor Site: Type of Lesion: ZYMBAL GLAND: CARCINOMA, ORAL CAVITY: CARCINOMA, NASAL CAVITY: CARCINOMA) of the same compound?
Answer: active; positive

Question: What about the carcinogen call (Species: RAT, Strain/Sex: WISTAR/FEMALE, Route: INTRAGASTRIC, 500 MG/KG BW IN OLIVE OIL 1/D 4-5 D/WK FOR 104 WK (STUDY DURATION: LIFESPAN), Tumor Site: Type of Lesion: ZYMBAL GLAND: CARCINOMA, MAMMARY GLAND: ADENOCARCINOMA, HEMOLYMPHORETICULAR SYSTEM: TUMOR, Tumor Site: Type of Lesion: ZYMBAL GLAND: CARCINOMA, MAMMARY GLAND: ADENOCARCINOMA, HEMOLYMPHORETICULAR SYSTEM: TUMOR) of the same compound?
Answer: active; positive

Question: What about the carcinogen call (Species: RAT, Strain/Sex: WISTAR/MALE, Route: GAVAGE, 500 MG/KG IN OLIVE OIL 1/D FOR 4 TO 5 D/WK FOR 104 WK (STUDY DURATION: LIFETIME), Tumor Site: Type of Lesion: ZYMBAL GLAND: CARCINOMA, ORAL CAVITY: CARCINOMA, NASAL CAVITY: CARCINOMA, Tumor Site: Type of Lesion: ZYMBAL GLAND: CARCINOMA, ORAL CAVITY: CARCINOMA, NASAL CAVITY: CARCINOMA) of the same compound?
Answer: active; positive

Question: What about the carcinogen call (Species: RAT, Strain/Sex: WISTAR/MALE, Route: INTRAGASTRIC, 500 MG/KG BW IN OLIVE OIL 1/D 4-5 D/WK FOR 104 WK (STUDY DURATION: LIFESPAN), Tumor Site: Type of Lesion: ZYMBAL GLAND: CARCINOMA) of the same compound?
Answer: active; positive
